Assays:
Type in all cases: cell-based, human
HuCCT1 cells [1] = experiment: Scratch assay (wound healing); conditions: for wound healing compared with no stimulation: 0.41 nM rhHGF or 16 nM aMD4dY-PA22; for Closure rate / Wound closure: 1 to 7 h, 0.41 nM HGF or 16 nM aMD4dY-PA22
Description: HuCCT1 cells at a density of 50,000 cells/well in RPMI 1640 medium supplemented with 10% FBS were added to a 96-well cell culture plate and incubated overnight in 5% CO2 at 37 °C to form cellular monolayers. The centers of the cellular monolayers were scratched with 1000 μL micropipette tips and incubated in RPMI 1640 medium supplemented with 0.5% FBS with or without 0.41 nM HGF or 16 nM aMD4dY-PA22 in 5% CO2 at 37 °C. Images of the cells were captured every hour using BioStudio-T (Nikon, Tokyo, Japan). The average wound healing rate was calculated as [(width of the wound 1 h after scratching) − (width of the wound […])]/6.

hPBMCs = experiment: Colony-forming assay; conditions: sheet Fig. 4, Fig. 4b
Description: Next, 1.1 mL of the mixture was seeded in a 6-well cell culture plate and cultured for 13 days in 5% CO2 at 37 °C. At day 13, colony numbers were counted, and images were taken by inverted microscopy and BZ-X fluorescence microscopy.

BM-hMSCs [2] = experiment: Cytokine array of conditioned media; conditions: 3 days
Description: The conditioned media (supernatant) of BM-hMSCs unstimulated or stimulated with 1.3 nM rhHGF or 32 nM aMD4dY-PA22 for 3 days were filtered using Millex-GV 0.22 µm PVDF membrane filter (Millipore) and analyzed using Human Cytokine Array C5 (Ray Biotech) according to the manufacturer’s instructions. Chemiluminescence was detected using Amersham Imager 600 (Cytiva).

BM-hMSCs [3] = experiment: Proliferation assay, BM-hMSCs (WST-8); conditions: 3 days, 1.3 nM rhHGF or 32 nM aMD4dY-PA22; for WST-8 absorbance, Normalized: normalized by mock
Description: BM-hMSC cells at a density of 2500 cells/well were seeded on a 96-well cell culture plate with DMEM supplemented with 10% FBS with or without 1.3 nM rhHGF or 32 nM aMD4dY-PA22. After 3 days of culture in 5% CO2 at 37 °C, Cell Counting Reagent SF (Dojindo Laboratories, Japan) was added to the cells. After 1 h incubation, cell numbers were quantified by detection of absorbance at 450 nm using the Benchmark Plus plate reader (Bio-Rad Laboratories, Hercules, CA, USA).

HuCCT1 cells [4] = experiment: Proliferation assay, HuCCT1 cells; conditions: 5 days, 0.44 nM rhHGF or […] aMD4dY-PA22; for Relative cell growth: normalized by mock
Description: The activity of aMD4dY-PA22 against HuCCT1 cell and BM-hMSC proliferation was evaluated. HuCCT1 cells at a density of 5000 cells/well were seeded on a 24-well cell culture plate with RPMI 1640 medium supplemented with 5% FBS with or without 0.44 nM rhHGF or 6.3 nM aMD4dY-PA22. After 5 days of culture in 5% CO2 at 37 °C, the cells were detached by 0.25% trypsin/ethylenediaminetetraacetic acid (EDTA; Thermo Fisher Scientific) and counted using a Countess automated cell counter (Thermo Fisher Scientific).

RTKs = experiment: Phospho-RTK array; conditions: 1.3 nM rhHGF or 32 nM aMD4dY-PA22, 10 min
Description: Ligand specificity against RTKs was evaluated using the Proteome Profiler Human Phospho-RTK Array Kit (R&D Systems). Confluent HEK293 cells in a 10 cm cell culture dish were starved in DMEM supplemented with 0.5% FBS and penicillin-streptomycin for 24 h. The starved cells were stimulated by 1.3 nM rhHGF or 32 nM aMD4dY-PA22 for 10 min, rinsed once with PBS, and lysed with 1 mL of lysis buffer 17 (R&D Systems) supplemented with a protease inhibitor cocktail (Nacalai Tesque). Lysates were analyzed using the Proteome Profiler Human Phospho-RTK Array Kit (R&D Systems) according to the manufacturer’s instructions. Chemiluminescence was detected using the Molecular Imager ChemiDoc XRS System (Bio-Rad Laboratories).

Met = experiment: SRE reporter assay for HGF activity (Erk-SRE, HEK293 cells); conditions: N=1; for Normalized Firefly/Renilla: Fig. S6b/c, 420 nM rhHGF
Description: The Met-activating ability of HGF mimetic STaMPtides was evaluated by SRE reporter assay using the SRE reporter vector (QIAGEN, Hilden, Germany) according to the manufacturer’s instructions. Briefly, 1 μL of the SRE reporter vector was mixed with 0.6 μL of Attractene Transfection Reagent (QIAGEN) in 50 μL of Opti-MEM medium (Thermo Fisher Scientific) to form a transfection complex. Next, HEK293 cells at a density of 40,000 cells/well were seeded on 96-well cell culture plates with the transfection complex and incubated overnight in 5% CO2 at 37 °C. The cells were starved with Opti-MEM containing 0.5% FBS, 1% non-essential amino acid solution, and penicillin-streptomycin and incubated at 37 °C for 4 h. Next, the cells were stimulated by rhHGF, purified HGF mimetic STaMPtides, monomeric aMD4dY, or decellularized supernatant overnight in a 5% CO2 incubator at 37 °C. The signal intensity was detected using the dual-luciferase reporter assay system (Promega Corporation) and a Nivo plate reader (PerkinElmer, Inc., Waltham, MA, USA). Reporter activity was calculated as (luminescence intensity of Firefly luciferase)/(luminescence intensity of Renilla luciferase) and normalized by that without a stimulant in order to determine the relative reporter activity.

Substance	wound healing compared with no stimulation (HuCCT1 cells [1])	Closure rate (HuCCT1 cells [1]; replicate 1)	Wound closure (HuCCT1 cells [1]; replicate 1)	Closure rate (HuCCT1 cells [1]; replicate 2)	Wound closure (HuCCT1 cells [1]; replicate 2)	Closure rate (HuCCT1 cells [1]; replicate 3)	Wound closure (HuCCT1 cells [1]; replicate 3)	Closure rate (HuCCT1 cells [1]; replicate 4)	Wound closure (HuCCT1 cells [1]; replicate 4)	Colony number (hPBMCs; N 1)	Colony number (hPBMCs; N 2)	Colony number (hPBMCs; N 3)	Colony number (hPBMCs; N 4)	cytokines and growth factors in conditioned supernatant (BM-hMSCs [2])	growth of BM-hMSCs (BM-hMSCs [3])	WST-8 absorbance, Normalized (BM-hMSCs [3]; N 1)	WST-8 absorbance, Normalized (BM-hMSCs [3]; N 2)	WST-8 absorbance, Normalized (BM-hMSCs [3]; N 3)	proliferation compared to the unstimulated condition (HuCCT1 cells [4])	Relative cell growth (HuCCT1 cells [4]; N 1)	further results
AET - CRQFNRRTHEVWNLDCG - AAPAAPA PAAPAAPA PAAPAA PG - CRQFNRRTHEVWNLDC (bicyclic or more) [aMD4dY-PA22, HGF mimetic STaMPtide, two aMD4dY macrocycles with a 22-amino-acid PA linker, secreted by C. glutamicum]	1.8 fold	104.419 μm/h	626.514 μm	110.38 μm/h	662.279 μm	95.5447 μm/h	573.268 μm	95.787 μm/h	574.722 μm	104.419	110.38	95.5447	95.787	to the same extent as unstimulated parental BM-hMSCs	slightly promoted proliferation	1.155	1.175	1.237	twofold	2.429	Relative cell growth (HuCCT1 cells [4]; N 2): 2.429; Relative cell growth (HuCCT1 cells [4]; N 3): 2.571; selectivity against RTKs (RTKs): highly Met-selective; Normalized F/R (Met; Fig. S6d, supernatant, dilution 10): 4.6947; Normalized F/R (Met; Fig. S6d, supernatant, dilution 30): 5.172; Normalized F/R (Met; Fig. S6d, supernatant, dilution 90): 5.6777; Normalized F/R (Met; Fig. S6d, supernatant, dilution 810): 3.099; Normalized F/R (Met; Fig. S6d, supernatant, dilution 2430): 1.722; Erk-SRE reporter activity of decellularized supernatants (Met; rapid screening without purification): highest activity
rhHGF: recombinant human HGF (R&D Systems)	1.6 fold	88.8457 μm/h	533.074 μm	100.748 μm/h	604.487 μm	98.5177 μm/h	591.106 μm	94.0632 μm/h	564.379 μm	88.8457	100.748	98.5177	94.0632	to the same extent as unstimulated parental BM-hMSCs	slightly promoted proliferation	1.1816	1.335	1.247	twofold	2.286	Relative cell growth (HuCCT1 cells [4]; N 2): 2.429; Relative cell growth (HuCCT1 cells [4]; N 3): 2.071; selectivity against RTKs (RTKs): highly Met-selective; Normalized F/R (Met; Fig. S6a, 2.008 pM): 0.9952; Normalized F/R (Met; Fig. S6a, 10.04 pM): 0.9963; Normalized F/R (Met; Fig. S6a, 50.19 pM): 1.192; Normalized F/R (Met; Fig. S6a, 250.9 pM): 3.768; Normalized F/R (Met; Fig. S6a, 1.25471e-9 M): 8.884; Normalized Firefly/Renilla (Met; dilution 1000): 9.87; Normalized Firefly/Renilla (Met; dilution 10000): 1.622

Reference: PMC8760323, “Single-chain tandem macrocyclic peptides as a scaffold for growth factor and cytokine mimetics” (Communications Biology, 2022)
